From ChEMBL document CHEMBL4342421, “Current scenario of tetrazole hybrids for antibacterial activity” (Eur J Med Chem, 2019)
Converted amounts (≈) assume the structure as drawn.

Legend:
[1] = test system: Escherichia coli; test: Antimicrobial activity against Escherichia coli; assay type: functional
[2] = test system: Bacillus subtilis; test: Antimicrobial activity against Bacillus subtilis; assay type: functional
[3] = test system: Salmonella typhimurium; test: Antimicrobial activity against Salmonella typhimurium; assay type: functional, Salmonella enterica subsp. enterica serovar Typhimurium; settings: Salmonella enterica
[4] = test system: Priestia megaterium; test: Antimicrobial activity against Bacillus megaterium; assay type: functional
[5] = test system: Micrococcus luteus; test: Antibacterial activity against Micrococcus luteus; assay type: functional
[6] = test system: SiHa; test: Growth inhibition of human SiHa cells; assay type: functional
[7] = test system: MDA-MB-231; test: Growth inhibition of human MDA-MB-231 cells; assay type: functional
[8] = test system: PANC-1; test: Growth inhibition of human PANC1 cells; assay type: functional
[9] = test system: Bacillus subtilis; test: Antimicrobial activity against Bacillus subtilis NCIM 2250 after 48 hrs by NCCLS protocol based method; assay type: functional; settings: NCIM 2250, 48 h
[10] = test system: Escherichia coli; test: Antimicrobial activity against Escherichia coli ATCC 25922 after 48 hrs by NCCLS protocol based method; assay type: functional; settings: ATCC 25922, 48 h
[11] = test system: Aspergillus niger; test: Antifungal activity against Aspergillus niger NCIM 545 after 48 hrs by NCCLS protocol based method; assay type: functional; settings: NCIM 545, 48 h
[12] = test system: Candida albicans; test: Antifungal activity against Candida albicans MTCC 277 after 48 hrs by NCCLS protocol based method; assay type: functional; settings: MTCC 277, 48 h
[13] = test system: Pseudomonas aeruginosa; test: Antimicrobial activity against Pseudomonas aeruginosa; assay type: functional
[14] = test system: Staphylococcus aureus; test: Antimicrobial activity against Staphylococcus aureus; assay type: functional
[15] = test system: Candida albicans; test: Antifungal activity against Candida albicans; assay type: functional
[16] = test system: Nakaseomyces glabratus; test: Antifungal activity against Candida glabrata; assay type: functional
[17] = test system: Candida tropicalis; test: Antifungal activity against Candida tropicalis; assay type: functional
[18] = test system: Escherichia coli; test: Antimicrobial activity against Escherichia coli assessed as zone of inhibition at 50 ug/ml; assay type: functional; settings: read-out: IZ
[19] = test system: Staphylococcus aureus; test: Antimicrobial activity against Staphylococcus aureus assessed as zone of inhibition at 50 ug/ml; assay type: functional; settings: read-out: IZ
[20] = test system: Aspergillus niger; test: Antifungal activity against Aspergillus niger assessed as zone of inhibition at 50 ug/ml; assay type: functional; settings: read-out: IZ
[21] = test system: Candida albicans; test: Antifungal activity against Candida albicans assessed as zone of inhibition at 50 ug/ml; assay type: functional; settings: read-out: IZ
[22] = test system: Aspergillus niger; test: Antifungal activity against Aspergillus niger; assay type: functional

| Compound | MIC [9] [mg/L] | MIC [10] [mg/L] | MIC [11] [mg/L] | MIC [12] [mg/L] | zone of inhibition at 50 µg/mL [18] [mm] | zone of inhibition at 50 µg/mL [19] [mm] | zone of inhibition at 50 µg/mL [20] [mm] | zone of inhibition at 50 µg/mL [21] [mm] | also measured |
| --- | --- | --- | --- | --- | --- | --- | --- | --- | --- |
| O=C(O)c1cn(C2CC2)c2cc(N3CCN(C(=O)CCSc4nnnn4-c4ccc(F)c(F)c4F)CC3)c(F)cc2c1=O |  |  |  |  |  |  |  |  | MIC [1]: 15.6 mg/L (≈ 25.3 µM); MIC [2]: 15.6 mg/L (≈ 25.3 µM); MIC [3]: 15.6 mg/L (≈ 25.3 µM); MIC [4]: 15.6 mg/L (≈ 25.3 µM); MIC [5]: 15.6 mg/L (≈ 25.3 µM); GI50 [6]: ≤ 1 µM; GI50 [7]: ≤ 1 µM; GI50 [8]: ≤ 1 µM |
| CCOC(=O)C(C#N)C(c1cc2cc(C)ccc2n2nnnc12)P(=O)(OCC)OCC (stereo unspecified) | 10 to 20 (≈ 22.5 to 44.9 µM) | 10 to 20 (≈ 22.5 to 44.9 µM) | 10 to 20 (≈ 22.5 to 44.9 µM) | 10 to 20 (≈ 22.5 to 44.9 µM) |  |  |  |  |  |
| Cc1cc2c(=O)c(OCc3nnn[nH]3)c(-c3ccc(F)cc3)oc2cc1Cl |  |  |  |  |  |  |  |  | MIC [1]: 50 to 400 mg/L (≈ 129 to 1030 µM); MIC [13]: 50 to 400 mg/L (≈ 129 to 1030 µM); MIC [14]: 50 to 400 mg/L (≈ 129 to 1030 µM); MIC [2]: 50 to 400 mg/L (≈ 129 to 1030 µM); MIC [15]: 12.5 to 25 mg/L (≈ 32.3 to 64.6 µM); MIC [16]: 12.5 to 25 mg/L (≈ 32.3 to 64.6 µM); MIC [17]: 12.5 to 25 mg/L (≈ 32.3 to 64.6 µM) |
| Clc1ccc(COC(Cn2ccnc2)c2ccc(Cl)cc2Cl)c(Cl)c1 (stereo unspecified) [MICONAZOLE] |  |  |  |  |  |  |  |  | MIC [15]: 12.5 to 800 mg/L (≈ 30 to 1920 µM); MIC [16]: 12.5 to 800 mg/L (≈ 30 to 1920 µM); MIC [17]: 12.5 to 800 mg/L (≈ 30 to 1920 µM) |
| CCOC(=O)C(C#N)C(c1cc2cc(OC)ccc2n2nnnc12)P(=O)(OCC)OCC (stereo unspecified) | 10 to 20 (≈ 21.7 to 43.3 µM) | 10 to 20 (≈ 21.7 to 43.3 µM) | 10 to 20 (≈ 21.7 to 43.3 µM) | 10 to 20 (≈ 21.7 to 43.3 µM) |  |  |  |  |  |
| CCOC(=O)C(C#N)C(c1cc2c(OC)cccc2n2nnnc12)P(=O)(OCC)OCC (stereo unspecified) | 10 to 20 (≈ 21.7 to 43.3 µM) | 10 to 20 (≈ 21.7 to 43.3 µM) | 10 to 20 (≈ 21.7 to 43.3 µM) | 10 to 20 (≈ 21.7 to 43.3 µM) |  |  |  |  |  |
| CCOC(=O)C(C#N)C(c1cc2c(OCC)cccc2n2nnnc12)P(=O)(OCC)OCC (stereo unspecified) | 10 to 20 (≈ 21 to 42.1 µM) | 10 to 20 (≈ 21 to 42.1 µM) | 10 to 20 (≈ 21 to 42.1 µM) | 10 to 20 (≈ 21 to 42.1 µM) |  |  |  |  |  |
| CCn1cc(C(=O)O)c(=O)c2cnc(N3CCNCC3)nc21 [PIPEMIDIC ACID] |  |  |  |  |  |  |  |  | MIC [1]: 31.2 mg/L (≈ 103 µM); MIC [2]: 31.2 mg/L (≈ 103 µM); MIC [3]: 31.2 mg/L (≈ 103 µM); MIC [4]: 31.2 mg/L (≈ 103 µM); MIC [5]: 31.2 mg/L (≈ 103 µM) |
| O=C(O)c1cn(C2CC2)c2cc(N3CCNCC3)c(F)cc2c1=O [CIPROFLOXACIN] |  |  |  |  | 19 to 20 | 19 to 20 | 19 to 20 | 19 to 20 | MIC [1]: 25 to 50 mg/L (≈ 75.4 to 151 µM); MIC [13]: 25 to 50 mg/L (≈ 75.4 to 151 µM); MIC [14]: 25 to 50 mg/L (≈ 75.4 to 151 µM); MIC [3]: 25 to 50 mg/L (≈ 75.4 to 151 µM); MIC [15]: 25 to 50 mg/L (≈ 75.4 to 151 µM); MIC [22]: 25 to 50 mg/L (≈ 75.4 to 151 µM); MIC [4]: 25 to 50 mg/L (≈ 75.4 to 151 µM); MIC [5]: 25 to 50 mg/L (≈ 75.4 to 151 µM) |
| COc1ccc(/C=C/C(=O)n2nnnc2-c2ccccc2)cc1 |  |  |  |  | 8 to 15 | 8 to 15 | 8 to 15 | 8 to 15 |  |
| O=C(/C=C/c1ccccc1[N+](=O)[O-])n1nnnc1-c1ccccc1 |  |  |  |  | 8 to 15 | 8 to 15 | 8 to 15 | 8 to 15 |  |
| Cc1ccc(/C=C/C(=O)n2nnnc2-c2ccccc2)cc1 |  |  |  |  | 8 to 15 | 8 to 15 | 8 to 15 | 8 to 15 |  |
| O=C(O)c1cn(C2CC2)c2cc(N3CCN(C(=O)CCSc4nnnn4-c4ccccc4)CC3)c(F)cc2c1=O |  |  |  |  |  |  |  |  | MIC [1]: 15.6 mg/L (≈ 27.7 µM); MIC [2]: 15.6 mg/L (≈ 27.7 µM); MIC [3]: 15.6 mg/L (≈ 27.7 µM); MIC [4]: 15.6 mg/L (≈ 27.7 µM); MIC [5]: 15.6 mg/L (≈ 27.7 µM); GI50 [6]: ≤ 1 µM; GI50 [7]: ≤ 1 µM; GI50 [8]: ≤ 1 µM |
| O=C(/C=C/c1ccc([N+](=O)[O-])cc1)n1nnnc1-c1ccccc1 |  |  |  |  | 8 to 15 | 8 to 15 | 8 to 15 | 8 to 15 |  |
| CN(C)c1ccc(/C=C/C(=O)n2nnnc2-c2ccccc2)cc1 |  |  |  |  | 8 to 15 | 8 to 15 | 8 to 15 | 8 to 15 |  |
| CCOC(=O)C(C#N)C(c1cc2ccc(OC)cc2n2nnnc12)P(=O)(OCC)OCC (stereo unspecified) | 10 (≈ 21.7 µM) | 10 (≈ 21.7 µM) | 10 (≈ 21.7 µM) | 10 (≈ 21.7 µM) |  |  |  |  |  |
| O=C(/C=C/c1ccccc1)n1nnnc1-c1ccccc1 |  |  |  |  | 8 to 15 | 8 to 15 | 8 to 15 | 8 to 15 |  |
| CCOC(=O)C(C#N)C(c1cc2ccc(CC)cc2n2nnnc12)P(=O)(OCC)OCC (stereo unspecified) | 10 to 20 (≈ 21.8 to 43.5 µM) | 10 to 20 (≈ 21.8 to 43.5 µM) | 10 to 20 (≈ 21.8 to 43.5 µM) | 10 to 20 (≈ 21.8 to 43.5 µM) |  |  |  |  |  |
